Source: patent US4329341A, “5-Phenyl-1,3,4,5-tetrahydro-2H-1,4-benzodiazepin-2-ones, and pharmaceutical compositions containing them” (Richter Gedeon Vegyeszeti Gyar Rt, priority 1980, dated 1982)

Assays:
[1] = tested on: NADPH-depending multifunctional oxydase enzyme system of the liver; test: Hexobarbital-induced sleeping time (measurement of enzyme inducing activity); type: in vivo, CFLP male mice; settings: for Hexobarbital-sleeping time, 1-hour pretreatment, average ± SE / Hexobarbital-sleeping time, 1-hour pretreatment, Δ% (percentage change related to the control) / Hexobarbital-sleeping time, 24-hour pretreatment, Δ% (percentage change related to the control) / Hexobarbital-sleeping time, 24-hour pretreatment, average ± SE: 40 mg./kg. p.o., hexobarbital 60 mg./kg. i.v.; for Hexobarbital-sleeping time, 1-hour pretreatment, average ± SE: control 35 ± 2.38; for Hexobarbital-sleeping time, 1-hour pretreatment, Δ% (percentage change related to the control) / Hexobarbital-sleeping time, 24-hour pretreatment, average ± SE: x: p < 0.001 compared to the control; for Hexobarbital-sleeping time, 24-hour pretreatment, average ± SE: control 34 ± 2.60
Text: The biological activity and duration of activity of different endogenic and exogenic compounds are greatly influenced by the activity of the NADPH- (nicotinic acid amide-adenine-dinucleotide phosphate-) depending multifunctional oxydase enzyme system of the liver. There are numerous compounds known in the art, showing various pharmacological activities, which are capable of increasing or inducing the activity of the metabolising, multifunctional oxydase enzyme system of the liver [see e.g. Sher, S.P.: Toxicol. appl. Pharmacol. 18, 780 /1971/; G. J. Mannering: in A. Burger's Selected Pharmacological Testing Methods, 51-119 S., Marcel Dekker Inc., New York /1968/]. […] Therefore phenobarbital can successfully be used in the treatment of Czigler-Najjar and Cilbert syndroms and neonatal hyperbilirubinemia, though due to its hypnotic-sedative effect the inducing activity of this compound is not optimal [Vessel and J. E. Page: J. Clin. Invest. 48, 2202 /1969/; J. T. Wilson: Pediatrics 43, 424 /1969/].
For screening the enzyme inducing activity the change in the hexobarbital-induced sleeping time is conventionally measured. The inducing activity of the compounds of the general formula (I) according to the invention was compared to the corresponding activity of phenobarbital and to their own sedative effect, using the following test methods.
Determination of the sleeping time induced by hexobarbital (measurement of enzyme inducing activity)
After (a) one hour and (b) after 24-hour pretreatment with a 40 mg./kg. p.o. dose of the test compounds, the groups of test animals were administered a 60 mg./kg. i.v. dose of hexobarbital.
(§1) As test animals CFLP male mice weighing […]. were used.

[2] = tested on: CFLP male mice; test: Potentiation of activity of sodium-barbital (measurement of the sedative activity); type: in vivo; settings: for Number of the test animals fallen asleep in % of the control: 20 mg./kg. i.p., after one hour Na-barbital 100 mg./kg. i.p.
Method: Determination of the potentiation of activity of sodium-barbital (measurement of the sedative activity)
In the tests carried out [see S. Goldschmidt and R. Wohr: Z. physiol. Chem. 308, 9 /1957/; D. V. Parker: J. Pharm. Pharmac. 27, 729 /1975/] the test animals were pretreated with a 20 mg./kg. i.p. dose of the test compounds of the general formula (I) and after one hour were administered a 100 mg./kg. i.p. dose of Na-barbital.
as §1

[3] = Acute toxicity (p.o.); design: species or system CFLP male mice; settings: mouse, in vivo, po, 14 days
Method: To the test animals 250 and 500 mg./kg. doses, resp. of the test compounds were administered orally and the number of the dead animals was registered for 14 days.
as §1

[4] = tested on: metabolysing enzyme system of the liver; settings: diseases caused by defectiveness of the metabolysing enzyme system of the liver; cited from earlier work

Structure (SMILES)	Hexobarbital-sleeping time, 1-hour pretreatment, average ± SE ([1]; 1-hour pretreatment) [min]	Hexobarbital-sleeping time, 1-hour pretreatment, Δ% (percentage change related to the control) ([1]; 1-hour pretreatment)	Hexobarbital-sleeping time, 24-hour pretreatment, Δ% (percentage change related to the control) [1] [%]	Hexobarbital-sleeping time, 24-hour pretreatment, average ± SE [1] [min]	Sleeping time 1 hour after administration, in words ([1]; 1-hour pretreatment)	Number of the test animals fallen asleep in % of the control [2]	Narcotic effect of Na-barbital alone ([2]; 100 mg./kg. i.p. Na-barbital)	Increase of sleeping time relative to its original value ([1]; 1-hour pretreatment) [times]	LD50 at 336 h [3] [mg/kg]	Inducing activity in human diseases, in words [4]
C[C@@H]1C(=O)N(C)c2ccc(Cl)cc2[C@@H](c2ccccc2)N1C(N)=O (relative stereo) [Example 5, 3RS,5RS-1,3-Dimethyl-4-carbamoyl-5-phenyl-7-chloro-1,3,4,5-tetrahydro-2H-1,4-benzodiazepin-2-one]	37.3 ± 3.01	+6%	-73	9 ± 0.43	most favourable properties	20%				
C[C@@H]1N[C@@H](c2ccccc2)c2cc(Cl)ccc2N(C)C1=O [Example 1, 3S,5S-1,3-Dimethyl-5-phenyl-7-chloro-1,3,4,5-tetrahydro-2H-1,4-benzodiazepin-2-one]	67.2 ± 7.01	+91%	-43	19.5 ± 1.84		50%				
C[C@H]1N[C@H](c2ccccc2)c2cc(Cl)ccc2N(C)C1=O [Example 2, 3R,5R-1,3-Dimethyl-5-phenyl-7-chloro-1,3,4,5-tetrahydro-2H-1,4-benzodiazepin-2-one]	61.2 ± 5.21	+73%	-61	13.3 ± 0.54		.phi.				
C[C@H]1C(=O)N(C)c2ccc(Cl)cc2[C@H](c2ccccc2)N1C(N)=O [Example 3, 3S,5S-1,3-Dimethyl-4-carbamoyl-5-phenyl-7-chloro-1,3,4,5-tetrahydro-2H-1,4-benzodiazepin-2-one]	43.3 ± 4.18	+23%	-65	12.0 ± 0.83	most favourable properties	0%				
C[C@@H]1C(=O)N(C)c2ccc(Cl)cc2[C@@H](c2ccccc2)N1C(N)=O [Example 4, 3R,5R-1,3-Dimethyl-4-carbamoyl-5-phenyl-7-chloro-1,3,4,5-tetrahydro-2H-1,4-benzodiazepin-2-one]	43.3 ± 5.01	+23%	-71	9.9 ± 0.62	most favourable properties	.phi.				
CCC1(CC)C(=O)NC(=O)NC1=O [Na-barbital, sodium-barbital, reference compound]							no narcotic effect			
CCC1(c2ccccc2)C(=O)NC(=O)NC1=O [Phenobarbital, reference compound]	86.2 ± 7.51	+145%	-69	11.2 ± 0.35		60%		~3	191	shows an inducing activity in the case of human diseases
